Data on seven molecules can be found in ChEMBL document CHEMBL4725268, “Anticonvulsant and analgesic in neuropathic pain activity in a group of new aminoalkanol derivatives” (Bioorg Med Chem Lett, 2020).

Data set [1] in a line: Toxicity in mouse assessed as lethality at 30 mg/kg, ip. In kind it is organism-based. The settings on record: in vivo.
The nature of data set [2]: Protection index, ratio of TD50 for toxicity in ip dosed mouse to ED50 for anticonvulsant activity in ip dosed mouse. Type of data set: organism-based. The settings on record: in vivo, read-out: PI.
Data set [3] in a line: Toxicity in ip dosed mouse assessed as motor impairment by rotarod test. Type of data set: organism-based. The settings on record: in vivo.
Data set [4] relates to Mus musculus. Put plainly: Anticonvulsant activity in ip dosed mouse assessed as protection against current-induced seizure by maximal electroshock seizure test. In kind it is functional.
Data set [5] can be described thus: Toxicity in mouse assessed as lethality at 50 mg/kg, ip. In kind it is organism-based. Particulars: in vivo.
Data set [6] has as its system Mus musculus. Description: Anticonvulsant activity in ip dosed albino mouse assessed as protection against 50 mA current-induced seizure by maximal electroshock seizure test. In kind it is functional.

As for `Cc1cc(C)c(OCCCN[C@H]2CC[C@H](O)CC2)c(C)c1`, in data set [1], the Activity result is reported as “Toxic”.

For `CC[C@@H](CO)NCCOCCOc1ccc(C)cc1C.Cl`, the selectivity ratio in data set [2] is 2.33. The TD50 in data set [3] amounted to 94.4 mg/kg. Moreover, the ED50 with Mus musculus [4] was 40.5 mg/kg.

Take `Cc1ccc(OCCCN2CCC(O)CC2)c(C)c1`: in data set [5], the Activity result is on record as “Non-Toxic”.

As to `CC(C)NCC(O)COc1cccc2ccccc12` (racemic) [PROPRANOLOL], the ED50 with Mus musculus [6] stood at 1.2 mg/kg.

With `CC(C)NC[C@@H](O)COc1cccc2ccccc12` [DEXPROPRANOLOL], the ED50 in the data set with Mus musculus [6] stood at 16 mg/kg.

With `CC(C)NC[C@H](O)COc1cccc2ccccc12` [LEVOPROPRANOLOL], in the data set with Mus musculus [6], the ED50 was 19.2 mg/kg.

As to `O=C1NC(=O)C(c2ccccc2)(c2ccccc2)N1` [PHENYTOIN], the selectivity ratio in data set [2] came to 8.56.
